Data taken from US20140044656A1, “NOVEL USE” (DSM IP ASSETS B.V., priority 2011, published 2014).

Assays:
[1] = Discoloration experiment (Pantone Color Index of aqueous solution at different pH); type: physicochemical; details: for Pantone Index: 1% solution in water
Method: Steviol (87%) was dissolved at 1 wt.-% in water and the pH adjusted to different values as shown below. At pH 9, the solution turns brown within 1 day. However, the more acidic the pH, the less discoloration was observed. The color was determined visually using the Pantone Color Index. Pantone Colours index of 1% Steviol solution in water at different pH: […]

[2] = test system: Normal human melanocytes NHM (HEMn-MP, Clonetics); experiment: Quantification of melanin synthesis in cell culture; type: cell-based; details: for total melanin content versus control (100%): three days, absorbance at 405 nm
Method: Normal human melanocytes NHM (HEMn-MP, Clonetics) were seeded in 96 well cell culture plates and grown to sub-confluence for two days in a mixture of M2-Medium (Clonetics) and Medium (Promocell). Culture medium was exchanged with Culture Medium containing Steviol (96%) and melanogenesis progressed for another three days at 37° C. with another medium exchange on day two. Including cell layer and culture supernatant the total melanin was extracted using 1.7M KOH with vigorous shaking at RT. The total melanin content was determined at 405 nm in an absorbance plate reader versus a control (100%)

Q: With `C=C1C[C@@]23CC[C@H]4[C@@](C)(CCC[C@@]4(C)C(=O)O)[C@@H]2CC[C@]1(O)C3` [Steviol, steviol] as the compound, how does the “Pantone Index” value ([1]; pH 6, visual) read?
A: 155

Q: What about the “Pantone Index” value ([1]; pH 6.5, visual) of the same compound?
A: 155

Q: And the “Pantone Index” value ([1]; pH 7, visual)?
A: 158

Q: And the “Pantone Index” value ([1]; pH 9, visual)?
A: 160

Q: What about the “time until solution turns brown” value ([1]; 1 wt.-% in water, pH 9) of the same compound?
A: ≤ 1 days

Q: What about the “effect on the production of melanin in human melanocytes” value ([2]; 0.25-1 microM) of the same compound?
A: clear dose dependent positive effect

Q: And the “total melanin content versus control (100%)” value ([2]; 0.25 microM)?
A: 109%

Q: And the “total melanin content versus control (100%)” value ([2]; 0.5 micro M)?
A: 124%

Q: What about the “total melanin content versus control (100%)” value ([2]; 1 micro M) of the same compound?
A: 130%

Q: And the “potency relative to the positive control Glycyrrhizin” value ([2]; melanin production in human melanocytes)?
A: about 1000 times
